Reference: patent US12673945B2, “3-((8-((1H-pyrazol-4-yl)amino)imidazo[1,2-a]pyridin-3-yl)ethinyl)-n-phenylbenzamide derivative, method for preparing same, and pharmaceutical composition containing same as active ingredient for prevention or treatment of cancer” (DAEGU-GYEONGBUK MEDICAL INNOVATION FOUNDATION, priority 2020, dated 2026)

Legend:
Assay type in all cases: cell-based
Parental (Ba/F3) = assay: Ba/F3 cell proliferation inhibition; conditions: BaF3; 72 hours, Cell Counting Kit-8
Summary of the method: (§1)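 Parental and T315I-Bcr-Abl Ba/F3 cells, 1×10^4 per well, exposed 72 h at 37 °C to nine 3-fold dilutions, final 0 to 10 μM. Viability by CCK-8 after 2 h, absorbance 450 nm; GI50 fitted from percent of vehicle-treated cells.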

T315I-Bcr-Abl (Ba/F3) = assay: Ba/F3 cell proliferation inhibition; conditions: BaF3; 72 hours, Cell Counting Kit-8
Summary of the method: as §1

T315I-KOPM28 cells = assay: human CML cell proliferation inhibition; conditions: 72 hours, Cell Counting Kit-8
Summary of the method: (§2)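 Growth inhibition over 72 h at 37 °C in Bcr-Abl (TCCS, KOPM28) or T315I-Bcr-Abl (T315I-TCCS, T315I-KOPM28) human CML cells, 1×10^4 cells/well. Nine 5-fold dilutions gave final 0 to 10 μM, with DMSO as control. GI50 was derived from CCK-8 A450 as percent of vehicle.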

TCCS cells = assay: human CML cell proliferation inhibition; conditions: 72 hours, Cell Counting Kit-8
Summary of the method: as §2

T315I-TCCS cells = assay: human CML cell proliferation inhibition; conditions: 72 hours, Cell Counting Kit-8
Summary of the method: as §2

KOPM28 cells = assay: human CML cell proliferation inhibition; conditions: 72 hours, Cell Counting Kit-8
Summary of the method: as §2

| Compound | GI50 (Parental (Ba/F3)) [nM] | GI50 (T315I-Bcr-Abl (Ba/F3)) [nM] | GI50 (T315I-KOPM28 cells) [nM] | GI50 (TCCS cells) [nM] | GI50 (T315I-TCCS cells) [nM] | GI50 (KOPM28 cells) [nM] |
| --- | --- | --- | --- | --- | --- | --- |
| Cc1cc(F)c(C(=O)Nc2ccc(CN3CC(OC(C)C)C3)c(C(F)(F)F)c2)cc1C#Cc1cnc2c(Nc3cnn(C)c3)cccn12 [Example 62, 2-fluoro-N-(4-((3-isopropoxyazetidin-1-yl)methyl)-3-(trifluoromethyl)phenyl)-4-methyl-5-((8-((1-methyl-1H-pyrazol-4-yl)amino)imidazo[1,2-a]pyridin-3-yl)ethynyl)benzamide] | > 5000 | 500 to 5000 | > 100 | < 10 | > 100 | < 10 |
| Cc1cc(F)c(C(=O)Nc2ccc(Cn3ccnc3)c(C(F)(F)F)c2)cc1C#Cc1cnc2c(Nc3cnn(C)c3)cccn12 [Example 63, N-(4-((1H-imidazol-1-yl)methyl)-3-(trifluoromethyl)phenyl)-2-fluoro-4-methyl-5-((8-((1-methyl-1H-pyrazol-4-yl)amino)imidazo[1,2-a]pyridin-3-yl)ethynyl)benzamide] | > 5000 | 500 to 5000 | > 100 | < 10 | > 100 | < 10 |
| Cc1cc(F)c(C(=O)Nc2ccc(Cn3cncn3)c(C(F)(F)F)c2)cc1C#Cc1cnc2c(Nc3cnn(C)c3)cccn12 [Example 64, N-(4-((1H-1,2,4-triazol-1-yl)methyl)-3-(trifluoromethyl)phenyl)-2-fluoro-4-methyl-5-((8-((1-methyl-1H-pyrazol-4-yl)amino)imidazo[1,2-a]pyridin-3-yl)ethynyl)benzamide] | > 5000 | 50 to 500 | > 100 | < 10 | 100 | < 10 |
| Cc1cc(F)c(C(=O)Nc2ccc(Oc3ccncc3)c(C(F)(F)F)c2)cc1C#Cc1cnc2c(Nc3cnn(C)c3)cccn12 [Example 65, 2-fluoro-4-methyl-5-((8-((1-methyl-1H-pyrazol-4-yl)amino)imidazo[1,2-a]pyridin-3-yl)ethynyl)-N-(4-(pyridin-4-yloxy)-3-(trifluoromethyl)phenyl)benzamide] | > 5000 | 50 to 500 | 100 | < 10 | 100 | < 10 |
| Cc1cc(F)c(C(=O)Nc2cc(CN3CCOCC3)cc(C(F)(F)F)c2)cc1C#Cc1cnc2c(Nc3cnn(C)c3)cccn12 [Example 66, 2-fluoro-4-methyl-5-((8-((1-methyl-1H-pyrazol-4-yl)amino)imidazo[1,2-a]pyridin-3-yl)ethynyl)-N-(3-(morpholinomethyl)-5-(trifluoromethyl)phenyl)benzamide] | > 5000 | 50 to 500 | > 100 | < 10 | > 100 | < 10 |
| Cc1cc(F)c(C(=O)Nc2cc(CN3CCCN(C)CC3)cc(C(F)(F)F)c2)cc1C#Cc1cnc2c(Nc3cnn(C)c3)cccn12 [Example 67, 2-fluoro-4-methyl-N-(3-((4-methyl-1,4-diazepan-1-yl)methyl)-5-(trifluoromethyl)phenyl)-5-((8-((1-methyl-1H-pyrazol-4-yl)amino)imidazo[1,2-a]pyridin-3-yl)ethynyl)benzamide] | 500 to 5000 | 50 to 500 | 100 | < 10 | 100 | < 10 |
| Cc1cc(F)c(C(=O)Nc2cc(CN3CCC(N(C)C)C3)cc(C(F)(F)F)c2)cc1C#Cc1cnc2c(Nc3cnn(C)c3)cccn12 (stereo not drawn) [Example 68, N-(3-((3-(dimethylamino)pyrrolidin-1-yl)methyl)-5-(trifluoromethyl)phenyl)-2-fluoro-4-methyl-5-((8-((1-methyl-1H-pyrazol-4-yl)amino)imidazo[1,2-a]pyridin-3-yl)ethynyl)benzamide] | 500 to 5000 | < 50 | 100 | < 10 | 100 | < 10 |
| Cc1cc(F)c(C(=O)Nc2cc(CN3CCN(CCO)CC3)cc(C(F)(F)F)c2)cc1C#Cc1cnc2c(Nc3cnn(C)c3)cccn12 [Example 69, 2-fluoro-N-(3-((4-(2-hydroxyethyl)piperazin-1-yl)methyl)-5-(trifluoromethyl)phenyl)-4-methyl-5-((8-((1-methyl-1H-pyrazol-4-yl)amino)imidazo[1,2-a]pyridin-3-yl)ethynyl)benzamide] | > 5000 | 50 to 500 | > 100 | 100 | > 100 | < 10 |
| Cc1cc(F)c(C(=O)Nc2cc(CN3CCN(S(C)(=O)=O)CC3)cc(C(F)(F)F)c2)cc1C#Cc1cnc2c(Nc3cnn(C)c3)cccn12 [Example 70, 2-fluoro-4-methyl-5-((8-((1-methyl-1H-pyrazol-4-yl)amino)imidazo[1,2-a]pyridin-3-yl)ethynyl)-N-(3-((4-(methylsulfonyl)piperazin-1-yl)methyl)-5-(trifluoromethyl)phenyl)benzamide] | > 5000 | 50 to 500 | > 100 | < 10 | > 100 | < 10 |
| Cc1cc(F)c(C(=O)Nc2cc(CN3CCN(C)C(=O)C3)cc(C(F)(F)F)c2)cc1C#Cc1cnc2c(Nc3cnn(C)c3)cccn12 [Example 71, 2-fluoro-4-methyl-5-((8-((1-methyl-1H-pyrazol-4-yl)amino)imidazo[1,2-a]pyridin-3-yl)ethynyl)-N-(3-((4-methyl-3-oxopiperazin-1-yl)methyl)-5-(trifluoromethyl)phenyl)benzamide] | > 5000 | 50 to 500 | > 100 | < 10 | 100 | < 10 |
| Cc1cc(F)c(C(=O)Nc2cc(CN3CC(OC(C)C)C3)cc(C(F)(F)F)c2)cc1C#Cc1cnc2c(Nc3cnn(C)c3)cccn12 [Example 72, 2-fluoro-N-(3-((3-isopropoxyazetidin-1-yl)methyl)-5-(trifluoromethyl)phenyl)-4-methyl-5-((8-((1-methyl-1H-pyrazol-4-yl)amino)imidazo[1,2-a]pyridin-3-yl)ethynyl)benzamide] | > 5000 | 50 to 500 | > 100 | < 10 | > 100 | < 10 |
| Cc1cc(F)c(C(=O)Nc2cc(Cn3ccnc3)cc(C(F)(F)F)c2)cc1C#Cc1cnc2c(Nc3cnn(C)c3)cccn12 [Example 73, N-(3-((1H-imidazol-1-yl)methyl)-5-(trifluoromethyl)phenyl)-2-fluoro-4-methyl-5-((8-((1-methyl-1H-pyrazol-4-yl)amino)imidazo[1,2-a]pyridin-3-yl)ethynyl)benzamide] | > 5000 | 50 to 500 | 100 | < 10 | 100 | < 10 |
| Cc1cc(F)c(C(=O)Nc2cc(Cn3cncn3)cc(C(F)(F)F)c2)cc1C#Cc1cnc2c(Nc3cnn(C)c3)cccn12 [Example 74, N-(3-((1H-1,2,4-triazol-1-yl)methyl)-5-(trifluoromethyl)phenyl)-2-fluoro-4-methyl-5-((8-((1-methyl-1H-pyrazol-4-yl)amino)imidazo[1,2-a]pyridin-3-yl)ethynyl)benzamide] | > 5000 | < 50 | 100 | < 10 | 100 | < 10 |
| Cc1cn(-c2cc(NC(=O)c3cc(C#Cc4cnc5c(Nc6cn[nH]c6)cccn45)c(C)cc3F)cc(C(C)(C)C#N)c2)cn1 [Example 75, 5-((8-((1H-pyrazol-4-yl)amino)imidazo[1,2-a]pyridin-3-yl)ethynyl)-N-(3-(2-cyanopropan-2-yl)-5-(4-methyl-1H-imidazol-1-yl)phenyl)-2-fluoro-4-methylbenzamide] | > 5000 | < 50 | 100 | < 10 | 100 | < 10 |
| Cc1cn(-c2cc(NC(=O)c3cc(C#Cc4cnc5c(Nc6cn[nH]c6)cccn45)c(C)cc3Cl)cc(C(C)(C)C#N)c2)cn1 [Example 76, 5-((8-((1H-pyrazol-4-yl)amino)imidazo[1,2-a]pyridin-3-yl)ethynyl)-2-chloro-N-(3-(2-cyanopropan-2-yl)-5-(4-methyl-1H-imidazol-1-yl)phenyl)-4-methylbenzamide] | > 5000 | < 50 | 100 | < 10 | 100 | < 10 |
| Cc1cc(F)c(C(=O)Nc2cc(-c3cnn(C)c3)cc(C(C)(C)C#N)c2)cc1C#Cc1cnc2c(Nc3cn[nH]c3)cccn12 [Example 77, 5-((8-((1H-pyrazol-4-yl)amino)imidazo[1,2-a]pyridin-3-yl)ethynyl)-N-(3-(2-cyanopropan-2-yl)-5-(1-methyl-1H-pyrazol-4-yl)phenyl)-2-fluoro-4-methylbenzamide] | > 5000 | 50 to 500 | > 100 | < 10 | 100 | < 10 |
| Cc1cc(F)c(C(=O)Nc2cc(-c3ccncc3)cc(C(C)(C)C#N)c2)cc1C#Cc1cnc2c(Nc3cn[nH]c3)cccn12 [Example 78, 5-((8-((1H-pyrazol-4-yl)amino)imidazo[1,2-a]pyridin-3-yl)ethynyl)-N-(3-(2-cyanopropan-2-yl)-5-(pyridin-4-yl)phenyl)-2-fluoro-4-methylbenzamide] | > 5000 | 50 to 500 | > 100 | < 10 | > 100 | 100 |
